System: MV-4-11 cells
Assay: Gene expression microarray analysis (Affymetrix PrimeView) and GSEA
Type: cell-based, human
Design: RFU PODN (11730768_x_at) / Fold change /veh PODN (11730768_x_at) / RFU LINC00158 (11744669_a_at) / Fold change /veh LINC00158 (11744669_a_at) / RFU DUSP10 (11751237_a_at) / Fold change /veh DUSP10 (11751237_a_at) / RFU ID3 (11757404_x_at) / Fold change /veh ID3 (11757404_x_at) / RFU PLEKHG5 (11737974_s_at) / Fold change /veh PLEKHG5 (11737974_s_at) / RFU LRRC4B (11730491_at) / Fold change /veh LRRC4B (11730491_at) / RFU GIMAP4 (11747438_a_at) / Fold change /veh GIMAP4 (11747438_a_at) / RFU KRT8 (11758183_x_at) / Fold change /veh KRT8 (11758183_x_at) / RFU CNN1 (11734310_a_at) / Fold change /veh CNN1 (11734310_a_at) / RFU VPS37D (11726825_at) / Fold change /veh VPS37D (11726825_at) / RFU C10orf10 (11716522_x_at) / Fold change /veh C10orf10 (11716522_x_at) / RFU KIR2DL2 /// KIR2DL4 /// KIR2DL5A /// KIR2DL5B /// KIR2DS1 /// KIR2DS2 /// KIR2DS3 /// KIR2DS4 /// KIR3DL3 /// KIR3DL3 /// KIR3DS1 (11738374_at) / Fold change /veh KIR2DL2 /// KIR2DL4 /// KIR2DL5A /// KIR2DL5B /// KIR2DS1 /// KIR2DS2 /// KIR2DS3 /// KIR2DS4 /// KIR3DL3 /// KIR3DL3 /// KIR3DS1 (11738374_at) / RFU C1QL1 (11718748_at) / Fold change /veh C1QL1 (11718748_at) / RFU TMPRSS4 (11747572_a_at) / Fold change /veh TMPRSS4 (11747572_a_at) / RFU HAMP (11756126_x_at) / Fold change /veh HAMP (11756126_x_at) / RFU RNFT2 (11725882_a_at) / Fold change /veh RNFT2 (11725882_a_at) / RFU NR4A2 (11747474_a_at) / Fold change /veh NR4A2 (11747474_a_at) / RFU ABCC12 (11746883_a_at) / Fold change /veh ABCC12 (11746883_a_at) / RFU TMEM136 (11760407_x_at) / Fold change /veh TMEM136 (11760407_x_at) / RFU CLDN22 /// WWC2 (11732394_at) / Fold change /veh CLDN22 /// WWC2 (11732394_at) / RFU HLA-DPB1 (11760878_x_at) / Fold change /veh HLA-DPB1 (11760878_x_at) / RFU SPINT1 (11716480_a_at) / Fold change /veh SPINT1 (11716480_a_at) / RFU GAP43 (11754022_s_at) / Fold change /veh GAP43 (11754022_s_at) / RFU A4GNT (11735810_at) / Fold change /veh A4GNT (11735810_at) / RFU PRB3 (11715151_x_at) / Fold change /veh PRB3 (11715151_x_at) / RFU TUBB4B (11761932_at) / Fold change /veh TUBB4B (11761932_at) / RFU CAPN14 (11732068_a_at) / Fold change /veh CAPN14 (11732068_a_at) / RFU TMCC2 (11721928_a_at) / Fold change /veh TMCC2 (11721928_a_at) / RFU IRGQ (11745062_a_at) / Fold change /veh IRGQ (11745062_a_at) / RFU FAM174B (11720279_a_at) / Fold change /veh FAM174B (11720279_a_at) / RFU TMPRSS4 (11748680_a_at) / Fold change /veh TMPRSS4 (11748680_a_at) / RFU FAM212B (11763350_a_at) / Fold change /veh FAM212B (11763350_a_at) / RFU PLEKHG5 (11743358_a_at) / Fold change /veh PLEKHG5 (11743358_a_at) / RFU ZSCAN30 (11745921_a_at) / Fold change /veh ZSCAN30 (11745921_a_at) / RFU CMKLR1 (11741424_a_at) / Fold change /veh CMKLR1 (11741424_a_at) / RFU LOC101060620 /// MAPK8IP1 (11723275_at) / Fold change /veh LOC101060620 /// MAPK8IP1 (11723275_at) / RFU SPTSSB (11747773_x_at) / Fold change /veh SPTSSB (11747773_x_at) / RFU PRSS12 (11739890_at) / Fold change /veh PRSS12 (11739890_at) / RFU BIN1 (11741810_x_at) / Fold change /veh BIN1 (11741810_x_at) / RFU WNT11 (11732464_a_at) / Fold change /veh WNT11 (11732464_a_at) / RFU C10orf10 (11716521_a_at) / Fold change /veh C10orf10 (11716521_a_at) / RFU C5orf56 (11738089_at) / Fold change /veh C5orf56 (11738089_at) / RFU CYB561 (11721691_x_at) / Fold change /veh CYB561 (11721691_x_at) / RFU ANKRD19P (11752326_a_at) / Fold change /veh ANKRD19P (11752326_a_at) / RFU OR2T12 /// OR2T33 /// OR2T8 (11738714_s_at) / Fold change /veh OR2T12 /// OR2T33 /// OR2T8 (11738714_s_at) / RFU VCAN (11748164_a_at) / Fold change /veh VCAN (11748164_a_at) / RFU JSRP1 (11732532_at) / Fold change /veh JSRP1 (11732532_at) / RFU KRTAP10-11 (11738290_x_at) / Fold change /veh KRTAP10-11 (11738290_x_at) / RFU MYO3A (11730013_a_at) / Fold change /veh MYO3A (11730013_a_at) / RFU EBF3 (11725865_a_at) / Fold change /veh EBF3 (11725865_a_at) / RFU CAMK2N1 (11719241_x_at) / Fold change /veh CAMK2N1 (11719241_x_at) / RFU C5orf56 (11738088_a_at) / Fold change /veh C5orf56 (11738088_a_at) / RFU OLFML3 (11715873_a_at) / Fold change /veh OLFML3 (11715873_a_at) / RFU LOC100653217 /// NTM (11731650_a_at) / Fold change /veh LOC100653217 /// NTM (11731650_a_at) / RFU MAPK11 (11762145_a_at) / Fold change /veh MAPK11 (11762145_a_at) / RFU FIZ1 (11724087_x_at) / Fold change /veh FIZ1 (11724087_x_at) / RFU OASL (11726364_x_at) / Fold change /veh OASL (11726364_x_at) / RFU SOX15 (11748057_x_at) / Fold change /veh SOX15 (11748057_x_at) / RFU CD79A (11719716_a_at) / Fold change /veh CD79A (11719716_a_at) / RFU HIST1H1D (11736915_at) / Fold change /veh HIST1H1D (11736915_at) / RFU CASKIN2 (11723855_a_at) / Fold change /veh CASKIN2 (11723855_a_at) / RFU LOC730098 (11760151_x_at) / Fold change /veh LOC730098 (11760151_x_at) / RFU OR4N2 (11742367_at) / Fold change /veh OR4N2 (11742367_at) / RFU PRRT2 (11749266_a_at) / Fold change /veh PRRT2 (11749266_a_at) / RFU SNX32 (11753110_a_at) / Fold change /veh SNX32 (11753110_a_at) / RFU CDHR5 (11726645_a_at) / Fold change /veh CDHR5 (11726645_a_at) / RFU RCAN1 (11760418_a_at) / Fold change /veh RCAN1 (11760418_a_at) / RFU FAM167A (11723789_a_at) / Fold change /veh FAM167A (11723789_a_at) / RFU FAM26E (11764081_at) / Fold change /veh FAM26E (11764081_at) / RFU ISYNA1 (11749810_s_at) / Fold change /veh ISYNA1 (11749810_s_at) / RFU ACY1 (11761880_at) / Fold change /veh ACY1 (11761880_at) / RFU 11764098_at / Fold change /veh 11764098_at / RFU SAMD14 (11745864_x_at) / Fold change /veh SAMD14 (11745864_x_at) / RFU NPB (11741838_a_at) / Fold change /veh NPB (11741838_a_at) / RFU TMPRSS6 (11731388_a_at) / Fold change /veh TMPRSS6 (11731388_a_at) / RFU KRTAP10-2 (11738614_at) / Fold change /veh KRTAP10-2 (11738614_at) / RFU ARHGAP8 /// PRR5-ARHGAP8 (11727945_x_at) / Fold change /veh ARHGAP8 /// PRR5-ARHGAP8 (11727945_x_at) / RFU KRTAP5-7 /// NADSYN1 (11734609_at) / Fold change /veh KRTAP5-7 /// NADSYN1 (11734609_at) / RFU RASL12 (11751679_a_at) / Fold change /veh RASL12 (11751679_a_at) / RFU CDKN2B (11736163_a_at) / Fold change /veh CDKN2B (11736163_a_at) / RFU PRF1 (11729649_at) / Fold change /veh PRF1 (11729649_at) / RFU, ZNF638 /// ZNF638-IT1 / Fold change vs veh, ZNF638 /// ZNF638-IT1 / RFU, PANK3 / Fold change vs veh, PANK3 / RFU, SH3YL1 / Fold change vs veh, SH3YL1 / RFU, ZEB2 / Fold change vs veh, ZEB2 / RFU, NRIP1 / Fold change vs veh, NRIP1 / RFU, PTTG1IP / Fold change vs veh, PTTG1IP / RFU, CAPN2 / Fold change vs veh, CAPN2 / RFU, MED14 / Fold change vs veh, MED14 / RFU, SNORA58 / Fold change vs veh, SNORA58 / RFU, C1orf63 / Fold change vs veh, C1orf63 / RFU, LRRFIP1 / Fold change vs veh, LRRFIP1 / RFU, NDUFAF7 / Fold change vs veh, NDUFAF7 / RFU, SLC12A2 / Fold change vs veh, SLC12A2 / RFU, IBTK / Fold change vs veh, IBTK / RFU, ESF1 / Fold change vs veh, ESF1 / Fold change vs veh, TMEM50B / RFU, TAOK1 / Fold change vs veh, TAOK1 / RFU, ACBD3 / Fold change vs veh, ACBD3 / RFU, TMA16 / Fold change vs veh, TMA16 / RFU, RWDD3 / Fold change vs veh, RWDD3 / RFU, BCAT1 / Fold change vs veh, BCAT1 / RFU, EDEM3 / Fold change vs veh, EDEM3 / RFU, TMEM33 / Fold change vs veh, TMEM33 / RFU, WDR75 / Fold change vs veh, WDR75 / RFU, AHCTF1 / Fold change vs veh, AHCTF1 / RFU, TFRC / Fold change vs veh, TFRC / RFU, ZDHHC17 / Fold change vs veh, ZDHHC17 / RFU, NOM1 / Fold change vs veh, NOM1 / RFU, ARL8B / Fold change vs veh, ARL8B / RFU, ZBTB11 / Fold change vs veh, ZBTB11 / RFU, TAMM41 / Fold change vs veh, TAMM41 / RFU, KIAA1704 /// LOC100996395 / Fold change vs veh, KIAA1704 /// LOC100996395 / RFU, ING1 / Fold change vs veh, ING1 / RFU, TRMT61B / Fold change vs veh, TRMT61B / RFU, FUBP3 / Fold change vs veh, FUBP3 / RFU, TP53 / Fold change vs veh, TP53 / RFU, TNKS2 / Fold change vs veh, TNKS2 / RFU, ZFP14 / Fold change vs veh, ZFP14 / RFU, ACTR2 / Fold change vs veh, ACTR2 / RFU, PPP3R1 / Fold change vs veh, PPP3R1 / RFU, PIK3R1 / Fold change vs veh, PIK3R1 / RFU, HNRNPA1 / Fold change vs veh, HNRNPA1 / RFU, RNF170 / Fold change vs veh, RNF170 / RFU, ZNF28 / Fold change vs veh, ZNF28 / RFU, RNGTT / Fold change vs veh, RNGTT / RFU, OGT / Fold change vs veh, OGT / RFU, BRD1 / Fold change vs veh, BRD1 / RFU, MARS / Fold change vs veh, MARS / RFU, ZNF655 / Fold change vs veh, ZNF655 / RFU, FAHD1 / Fold change vs veh, FAHD1 / RFU, BDP1 / Fold change vs veh, BDP1 / RFU, LRRCC1 / Fold change vs veh, LRRCC1 / RFU, ARID1A / Fold change vs veh, ARID1A / RFU, ZNF146 / Fold change vs veh, ZNF146 / RFU, ZNF330 / Fold change vs veh, ZNF330 / RFU, GPN3 / Fold change vs veh, GPN3 / RFU, C9orf123 / Fold change vs veh, C9orf123 / RFU, N4BP2L2 / Fold change vs veh, N4BP2L2 / RFU, ARFIP1 / Fold change vs veh, ARFIP1 / RFU, FAM179B / Fold change vs veh, FAM179B / RFU, BCL10 / Fold change vs veh, BCL10 / RFU, UHRF1BP1L / Fold change vs veh, UHRF1BP1L / RFU, BET1 / Fold change vs veh, BET1 / RFU, CNOT2 / Fold change vs veh, CNOT2 / RFU, ZNF268 / Fold change vs veh, ZNF268 / Fold change vs veh, ZNF507 / RFU, DGCR2 / Fold change vs veh, DGCR2 / RFU, WDSUB1 / Fold change vs veh, WDSUB1 / Fold change vs veh, HSP90B1 /// MIR3652 / RFU, ADSS / Fold change vs veh, ADSS / RFU, GK / Fold change vs veh, GK / RFU, ZNF148 / Fold change vs veh, ZNF148 / RFU, TAF9 / Fold change vs veh, TAF9 / RFU, SLC1A5 / Fold change vs veh, SLC1A5 / RFU, SLMO2 / Fold change vs veh, SLMO2 / RFU, ABCC4 / Fold change vs veh, ABCC4 / RFU, LOC101060439 /// RAP1B / Fold change vs veh, LOC101060439 /// RAP1B / RFU, RFX7 / Fold change vs veh, RFX7 / RFU, GTPBP10 / Fold change vs veh, GTPBP10 / RFU, CNEP1R1 / Fold change vs veh, CNEP1R1 / RFU, BIVM-ERCC5 /// ERCC5 / Fold change vs veh, BIVM-ERCC5 /// ERCC5 / RFU, ILF3 / Fold change vs veh, ILF3 / RFU 11762660_at / Fold change /veh 11762660_at / RFU VCAN (11757783_s_at) / Fold change /veh VCAN (11757783_s_at) / RFU DDX43 (11728927_at) / Fold change /veh DDX43 (11728927_at) / RFU KRT8 (11758188_x_at) / Fold change /veh KRT8 (11758188_x_at) / RFU NKD1 (11759106_at) / Fold change /veh NKD1 (11759106_at) / RFU SRD5A1 (11742802_a_at) / Fold change /veh SRD5A1 (11742802_a_at) / RFU TPSAB1 /// TPSB2 (11721975_s_at) / Fold change /veh TPSAB1 /// TPSB2 (11721975_s_at) / RFU GSTM3 (11746129_a_at) / Fold change /veh GSTM3 (11746129_a_at) / RFU IL23R (11737362_x_at) / Fold change /veh IL23R (11737362_x_at) / RFU TMEM51 (11727254_a_at) / Fold change /veh TMEM51 (11727254_a_at) / RFU PIWIL2 (11732686_x_at) / Fold change /veh PIWIL2 (11732686_x_at) / RFU ORM1 (11744905_x_at) / Fold change /veh ORM1 (11744905_x_at) / RFU CCDC152 (11743942_at) / Fold change /veh CCDC152 (11743942_at) / RFU ECM1 (11717891_a_at) / Fold change /veh ECM1 (11717891_a_at) / RFU IL23R (11748794_a_at) / Fold change /veh IL23R (11748794_a_at) / RFU TNFAIP8L3 (11732012_x_at) / Fold change /veh TNFAIP8L3 (11732012_x_at) / RFU MBOAT4 (11741988_at) / Fold change /veh MBOAT4 (11741988_at) / RFU 11764193_at / Fold change /veh 11764193_at / RFU TMEM53 (11763286_at) / Fold change /veh TMEM53 (11763286_at) / RFU MAGEB2 (11727129_at) / Fold change /veh MAGEB2 (11727129_at) / RFU TMEM200A (11744735_a_at) / Fold change /veh TMEM200A (11744735_a_at) / RFU CCDC152 (11751479_a_at) / Fold change /veh CCDC152 (11751479_a_at) / RFU FAM211A (11726209_a_at) / Fold change /veh FAM211A (11726209_a_at) / RFU RGS16 (11746705_a_at) / Fold change /veh RGS16 (11746705_a_at) / RFU VCAN (11755009_s_at) / Fold change /veh VCAN (11755009_s_at) / RFU RHOB (11743442_s_at) / Fold change /veh RHOB (11743442_s_at) / RFU RGS16 (11720943_a_at) / Fold change /veh RGS16 (11720943_a_at) / RFU RGS16 (11720944_at) / Fold change /veh RGS16 (11720944_at) / RFU, VPS4B / Fold change vs veh, VPS4B / RFU, CREB1 / Fold change vs veh, CREB1 / RFU, DNAJC13 / Fold change vs veh, DNAJC13 / RFU, GNAQ / Fold change vs veh, GNAQ / RFU, CDK5R1 / Fold change vs veh, CDK5R1 / RFU, ZRANB3 / Fold change vs veh, ZRANB3 / RFU, CUL4A / Fold change vs veh, CUL4A / RFU, CCNY / Fold change vs veh, CCNY / RFU, UFL1 / Fold change vs veh, UFL1 / RFU, COG3 / Fold change vs veh, COG3 / RFU, DIAPH2 / Fold change vs veh, DIAPH2 / RFU, SKA2 / Fold change vs veh, SKA2 / RFU, AFF3 / Fold change vs veh, AFF3 / RFU, LMF1 / Fold change vs veh, LMF1 / RFU, IPO11 / Fold change vs veh, IPO11 / RFU, DFFB / Fold change vs veh, DFFB / RFU, FOXP1 / Fold change vs veh, FOXP1 / RFU, CARD8 / Fold change vs veh, CARD8 / RFU, STRN3 / Fold change vs veh, STRN3 / RFU, ADK / Fold change vs veh, ADK / RFU, RASSF2 / Fold change vs veh, RASSF2 / RFU, WIPF1 / Fold change vs veh, WIPF1 / RFU, LARP1B / Fold change vs veh, LARP1B / RFU, RASA1 / Fold change vs veh, RASA1 / RFU, RB1 / Fold change vs veh, RB1 / RFU, PPFIA1 / Fold change vs veh, PPFIA1 / RFU, MAT2A / Fold change vs veh, MAT2A / RFU, CCT5 / Fold change vs veh, CCT5 / RFU, WDR92 / Fold change vs veh, WDR92 / RFU, CUX1 / Fold change vs veh, CUX1 / RFU, TTC7A / Fold change vs veh, TTC7A / RFU, TMEM135 / Fold change vs veh, TMEM135 / RFU, DEPTOR / Fold change vs veh, DEPTOR / RFU, CPM / Fold change vs veh, CPM / RFU, DNAJB6 / Fold change vs veh, DNAJB6 / RFU, CACNA2D3 / Fold change vs veh, CACNA2D3 / RFU, DTX4 / Fold change vs veh, DTX4 / RFU, TFCP2 / Fold change vs veh, TFCP2 / RFU, GMCL1 /// GMCL1P1 / Fold change vs veh, GMCL1 /// GMCL1P1 / RFU, AEBP2 / Fold change vs veh, AEBP2 / RFU, SNHG1 /// SNORD22 /// SNORD25 /// SNORD26 /// SNORD27 /// SNORD28 /// SNORD29 /// SNORD31 / Fold change vs veh, SNHG1 /// SNORD22 /// SNORD25 /// SNORD26 /// SNORD27 /// SNORD28 /// SNORD29 /// SNORD31 / Fold change (Aza/veh), C12orf56 (ProbeSet 11735607_a_at) / Fold change (ACY-1035/veh), C12orf56 (ProbeSet 11735607_a_at) / Fold change (Aza/veh), FGFR1OP (ProbeSet 11751329_s_at) / Fold change (ACY-1035/veh), FGFR1OP (ProbeSet 11751329_s_at) / Fold change (Aza/veh), VPS36 (ProbeSet 11739960_a_at) / Fold change (ACY-1035/veh), VPS36 (ProbeSet 11739960_a_at) / RFU SYPL1 (11715823_x_at) / Fold change /veh SYPL1 (11715823_x_at) / RFU IGFBP7 (11715501_s_at) / Fold change /veh IGFBP7 (11715501_s_at) / RFU REEP3 (11722064_at) / Fold change /veh REEP3 (11722064_at) / RFU IGLL1 (11728026_x_at) / Fold change /veh IGLL1 (11728026_x_at): dose or concentration left out as unconfirmed
Details: MV-4-11 cells, 48 hours

Nc1ccc(-c2cccs2)cc1NC(=O)c1ccc2c(c1)cc(C1CC1)n2CCN1CCOCC1 [ACY-1035]
RFU GAP43 (11754022_s_at): 68.94 RFU

Reference: paper PMC5218480 (PLoS ONE, 2017)
